In one test the test system is tibia. The experiment in a line: Periosteal tibia injection, DEXA bone mineral density and content. The class given is in vivo, male Wistar rats. To be noted: 7 days post injection; for changes in BMC (bone mineral content) / changes in BMD (bone mineral density): treated whole tibia in all regions, DEXA, SKELITE powder carrier. On the procedure: BCSP1 peptide and BCSP4 peptide were tested at four dose levels, 0.05, 0.5, 1.0 & 5.0 mg/rat or vehicle, n=6 per dose. Sixty male Wistar rats, weighing 90-110 grams, were randomized into two groups, ear tagged and left undisturbed for 1 week prior to the procedure. Food and water are administered ad libitum. Animals weighed 150-190 grams at time of injection. Group 1 received injections of BCSP4 peptide on day 8 of acclimation. Group 2 received injections of BCSP1 peptide on day 9 of acclimation. Dissections were conducted on respective days, 7 days post injection.
The peptides were dissolved in sterile water at 0.05-5 mgs per 100 microliter volume, added to 0.5 mg of a dry synthetic biomaterial compound (SKELITE™) powder and lyophilized onto the carrier. Samples are resuspended in 100 microliters of sterile saline for injection. Delivery of the test compound was made under a general anaesthetic of Isofluorane with oxygen. Using a 0.5 cc insulin syringe fitted with a 28G1/2″ needle, the peptides were deposited onto the periosteal surface of the right medial tibia surface proximal to the knee under the Tibialis cranialis muscle group. Control animals are injected with saline vehicle and a synthetic biomaterial compound (SKELITE™) carrier.
Animals were euthanized with carbon dioxide and dissected to remove the treated right tibia and contra-lateral control limb, 7 days post injection. Muscle and soft connective tissue is dissected away prior to fixation in 70% ethanol.
Each tibia set was scanned as a pair for bone mineral density (BMD) and bone mineral content (BMC) on a Norland Eclipse DEXA scanner in small subject mode. Percent increases in local BMD (FIG. 5) were calculated against the untreated contra-lateral limb. […] This increase in physical size reduces the overall percentage increase in BMD (BMD=BMC/cm^2). Each tibia was analyzed in 3 contiguous regions, proximal, medial and distal as well as whole tibia measurements. Comparisons and statistical assessment of dose versus vehicle were conducted for each peptide for bone forming activity using a standard student t-test.

For test [1], the system named is rat calvaria derived osteoblasts. Description: Cell bound alkaline phosphatase, calvaria derived osteoblasts. The format is cell-based. To be noted: rat calvaria cultures (RC); 10 μg/ml to 100 μg/ml; 48 hr exposure. How it is done:
(§1) BCSP1 was tested in three assays to understand the mechanism of bone stimulation by the peptide. Dose ranges in the microgram range were used to generate dose response curves. All assays used primary rat osteoblast cultures from bone marrow or calvaria.
(§2) Osteoblast proliferation was accessed using a DNA based assay which measures bromodeoxyuridine (BrdU) incorporation. Differentiation of osteoblasts was determined using the mid to late stage bone marker Alkaline Phosphatase. Late stage differentiation and mineralization was determined using a Bone Nodule formation assay (calvaria only).
(§3) Cell bound alkaline phosphatase from cell lysates of rat bone marrow derived osteoblasts and rat calvaria derived osteoblasts. BCSP1 was provided at a dose range of 100 μg/ml to 1 μg/mL. Cells were cultured for 3 days prior to a 48 hr exposure to the peptide.

Another test has as its system human chondrocytes. Description: [3H] thymidine incorporation assay, human primary chondrocyte cultures. The class given is cell-based. How it is done: (§4) BCSP1 was tested in vitro to determine effect on bovine and human primary chondrocyte cultures using a [3H] thymidine incorporation assay. Cells were seeded at […] for human chondrocytes (96 well plate) and allowed to attach for 48 h (medium containing 10% fetal bovine serum (FBS). Pre-confluent cells were then treated in quaduplicate with BCSP1 (0, 10, 20 and 40 ng/ml for 48 hrs and with [3H]thymidine ([…]) for the last 24 hrs (medium containing 2% FBS). The culture medium used was Dulbecco's Modified Eagle Medium (DMEM) (Gibco, Cat. #23800) containing 200 units/ml Penicillin, 200 ug/ml Streptomycin and 10% FBS for growth and 2% FBS for dosing.
(Incorporation of labelled thymidine or its analogues reports DNA synthesis.)

The test system of test [2] is osteoblast cultures derived from rat bone marrow. Description: Osteoblast proliferation, BrdU incorporation, bone marrow derived cultures. Conditions: 24 hr exposure. The format is cell-based. On the procedure: as §1, §2
Cells were cultured for four days prior to a 24 hr exposure to the peptide (FIG. 11).

The next test deals with rat calvaria cultures. The experiment in a line: Bone nodule formation assay, alizarin red staining. The class given is cell-based. To be noted: 10 days. On the procedure: as §1, §2
Rat calvaria cultures were maintained for 10 days in the presence of BCSP1 at a dose range of 1 ng/ml to 100 μg/ml with dosing provided at each fluid change. Mineralized bone nodules were detected by staining with alizarin red. Image analysis was conducted with an Alpha Imager 2000™ to count and quantify nodule area. […] Increased alkaline phosphatase would lead to increases in total mineralized area.

The next test deals with bovine chondrocytes. Description: [3H] thymidine incorporation assay, bovine primary chondrocyte cultures. The class given is cell-based. How it is done:
as §4

For test [3], the system named is osteoblast cultures derived from rat calvaria. The experiment in a line: Osteoblast proliferation, BrdU incorporation, calvaria derived cultures. The format is cell-based. Conditions: dose range of 1.3-6.4 ng/ml; 24 hr exposure. On the procedure: as §1, §2
Cells were cultured for four days prior to a 24 hr exposure to the peptide at a dose range from 100 μg/ml to 1.3 ng/ml of peptide (FIG. 12).

In test [4] the test system is rat bone marrow derived osteoblasts. Description: Cell bound alkaline phosphatase, bone marrow derived osteoblasts. The class given is cell-based. How it is done:
as §1, §2, §3

Where no end group is shown, it is not given here. [ ]: non-standard residue; d: D form. Hyp = O=C(O)[C@@H]1C[C@@H](O)CN1

Regarding “NGLPGPIGP* (NGLPGPIG[Hyp]) [BCSP1, P* is hydroxyproline]”, in the test with tibia (treated tibia), the bone size entry is reported as “increase in bone size”. Further, the “alkaline phosphatase over control (vehicle)” value in test [1] is reported as “dose dependent response”; in test [4] (rat bone marrow cultures (RBM), 1 μg/ml to 100 μg/ml, 48 hr exposure), “dose dependent response”. The “proliferation of chondrocyte cells” value in the test with human chondrocytes (10, 20 and 40 ng/ml, 48 hrs) is “dose dependent increase”; with bovine chondrocytes (10, 20 and 40 ng/ml, 48 hrs), “dose dependent increase”. The effect on proliferation result in the test on human chondrocytes (doses in the nanogram range) and in the test on bovine chondrocytes (doses in the nanogram range) was “up to 3 fold” each time. Further, in test [2] (rat bone marrow osteoblasts, up to 100 μg/ml), the “increase in DNA synthesis” value was ≤ 75%. For the same substance, the osteoblast proliferation entry in test [2] (to 100 μg/ml) is listed as “dose response increase”; in test [3], “statistically significant increase”. Moreover, the “number of bone nodules formed” value is given as “slight increase” in the test on rat calvaria cultures (1 ng/ml and 10 ng/ml range); “minimal changes” in the test on rat calvaria cultures (1 ng/ml to 100 μg/ml). In addition, the “total mineralized bone nodule area (size of nodules)” value with rat calvaria cultures (1 ng/ml to 100 μg/ml, dose dependent) is recorded as “significantly increased”. Further, the “specific activity of alkaline phosphatase” value in test [4] (further experimentation, not shown, culture not specified) is given as “increase in specific activity”.
Take PGPIG [BCSP7]: in the test on tibia, the “changes in BMC (bone mineral content)” value is given as “Significant changes” and the “changes in BMD (bone mineral density)” value is “Significant changes”.
With PGPIGP [BCSP9], in the test with tibia, the “changes in BMC (bone mineral content)” value is given as “Significant changes” and the “changes in BMD (bone mineral density)” value was “Significant changes”.
Turning to PGPIGPPGPR [BCSP10], in the test on tibia, the “changes in BMC (bone mineral content)” value is “Significant changes” and the “changes in BMD (bone mineral density)” value is “Significant changes”.

(Values after US9133236B2, “Connective tissue stimulating peptides” (priority 2002, dated 2015).)
